Source: publication PMC12592418, “Therapeutic potential of red bean (phaseolus vulgaris) peptides: anticancer, antihypertension, and antioxidant activities” (Scientific Reports, 2025)
No end group written: not given here.

Legend:
[1] = tested on: angiotensin-converting enzyme (ACE); assay: ACE inhibitory activity assay (HHL substrate); assay type: biochemical; details: peptide 100 µg/ml, ACE 0.2 U/mL, 5 mM HHL, phosphate buffer pH 6.8, 37 °C, mean ± SD, n = 3
Description: The method utilized here is a spectrophotometric method based on the commonly used method introduced by Cushman and Cheung (1971)[45]. The 5 ul of sample was preincubated with 45 ul of ACE enzyme (0.2 U/mL) in 100 mM Phosphate buffer (pH 6.8) and incubated for 10 min at 37 °C. Enzyme activity was assayed by monitoring the hydrolysis of hippuryl-L-histidyl-L-leucine (HHL). After adding 50 µL of a 5 mM HHL substrate solution, the increase in absorbance at 405 nm was measured every minute for 15 min at 37 °C using a 96-well microplate reader. The initial velocity was determined from the linear portion of the curve, and the inhibitory activity was expressed as a percentage calculated using the following equation:
% inhibition = (1-(B-b)/(A-a)) x 100,
where A is an initial velocity of the control reaction with enzyme (control), a is an initial velocity of the control reaction without enzyme (control blank), B is an initial velocity of the enzyme reaction with sample and b is an initial velocity of the reaction with sample but without enzyme (sample blank).

SW620 cells = assay: MTT cell viability assay, SW620; assay type: cell-based, human; details: synthetic peptide 100 µg/ml, 24 h, mean ± SD
Description: (§1) CaCO2, HepG2, MCF-7, NCI-H460, SiHa, SW620, and Vero cells were obtained from the American Type Culture Collection (ATCC, Manassas, VA, USA). Cells were cultured in Dulbecco’s Modified Eagle’s Medium (DMEM; PAA, Pasching, Austria), supplemented with 10% (v/v) fetal bovine serum (Gibco, South America), 10 mM HEPES (HyClone, Utah, USA), 2 mM L-glutamine, and 100 U/mL penicillin and 100 µg/mL streptomycin. Cultures were maintained at 37 °C in a humidified atmosphere containing 5% CO₂.
(§2) The anticancer activity of protein hydrolysates and synthetic peptides against CaCO2, HepG2, MCF-7, NCI-H460, SiHa, SW620, and Vero cells were evaluated using the MTT assay. Cells were seeded into 96-well plates (Nunc™, Roskilde, Denmark) at a density of 2 × 10⁴ cells per well, and allowed to adhere. Following seeding, cells were treated with 100 µg/mL of protein hydrolysates or synthetic peptides for 24 h, while untreated cells served as controls. After 24 h, 20 µL of MTT solution (5 mg/mL; Sigma, St. Louis, MO, USA) was added to each well and incubated for an additional 3 h. The supernatant was then removed, and 100 µL of DMSO was added to each well to dissolve the formazan crystals. Optical density (OD) was measured at 540 nm using a microplate reader (Rayto RT-2100 C, China). Cell viability was calculated using the equation: (OD of treated cells/OD of untreated cells) × 100.
(§3) The IC50 values were calculated from a fitted semi-log response curve, plotting cell viability percentages against concentration. These values were determined using the AAT-Bioquest IC50 calculator (https://www.aatbio.com/tools/ic50-calculator).

HepG2 cells = assay: MTT cell viability assay, HepG2; assay type: cell-based, human; details: synthetic peptide 100 µg/ml, 24 h, mean ± SD, n = 3
Description: as §1, §2, §3

NCI-H460 cells = assay: MTT cell viability assay, NCI-H460; assay type: cell-based, human; details: synthetic peptide 100 µg/ml, 24 h, mean ± SD
Description: as §1, §2, §3

[2] = DPPH radical scavenging assay; assay type: physicochemical; details: peptide 100 µg/ml, 0.1 mM DPPH, 30 min in the dark, room temperature, absorbance 517 nm, mean ± SD, n = 3
Description: The DPPH radical scavenging activity of the sample was evaluated following the protocol by Muangrod et al.[48] with slight modifications. Briefly, 190 µL of 0.1 mM DPPH was mixed with 10 µL of the sample or standard ascorbic acid in each well and incubated at room temperature in the dark for 30 min. The absorbance of the mixture was measured at 517 nm using a microplate reader (Rayto RT-2100 C, China). Ascorbic acid was used as the standard. Results were expressed as micrograms ascorbic acid equivalent (µg AAE g^−1).

[3] = FRAP ferric ion-reducing antioxidant power assay; assay type: physicochemical; details: peptide 100 µg/ml, 30 min in the dark, absorbance 593 nm, mean ± SD, n = 3
Description: The ferric ion-reducing antioxidant power assay was analyzed according to the method by Rumpf et al.[47] with minor modifications. Briefly, the FRAP reagent was prepared from 300 mM sodium acetate (pH 3.6) and 10 mM TPTZ (2,4,6-tris (2-pyridyl)-s-triazine) in 40 mM HCl and 20 mM ferric chloride at the ratio of 10:1:1, respectively. Then, a 10 µL aliquot of the sample or standard was mixed with 190 µL of the FRAP reagent before incubating in the dark for 30 min. The absorbance was measured at 593 nm using a microplate reader (Rayto RT-2100 C, China). Ascorbic acid was used as the standard. Results were expressed as micrograms of ascorbic acid equivalent per gram (µg AAE g^−1).

Vero cells = assay: MTT cell viability assay, Vero; assay type: cell-based, monkey; details: synthetic peptide 100 µg/ml, 24 h, mean ± SD, n = 3
Description: as §1, §2, §3

MCF-7 cells = assay: MTT cell viability assay, MCF-7; assay type: cell-based, human; details: synthetic peptide 100 µg/ml, 24 h, mean ± SD, n = 3
Description: as §1, §2, §3

CaCO2 cells = assay: MTT cell viability assay, CaCO2; assay type: cell-based, human; details: synthetic peptide 100 µg/ml, 24 h, mean ± SD, n = 3
Description: as §1, §2, §3

[4] = ABTS radical scavenging assay; assay type: physicochemical; details: peptide 100 µg/ml, 5 min in the dark, absorbance 750 nm, mean ± SD, n = 3
Description: Radical scavenging antioxidant activity was determined according to the ABTS radical scavenging activity following the method described by Re et al.[46] with slight modifications. Briefly, the solution of ABTS radical was prepared from the reaction between 7 mM ABTS (2,2-azino-bis (3-ethylbenzothiazoline-6-sulphonic acid) diammonium salt) and 2.45 mM ammonium persulphate. The resulting ABTS solution was diluted with distilled water to achieve an optical density of 0.7 at 750 nm. Then, a sample or standard of 10 µL was mixed with 190 µL of ABTS solution and incubated for 5 min in the dark. The absorbance was measured at 750 nm by a microplate reader (Rayto RT-2100 C, China). Ascorbic acid was used as the standard.

SiHa cells = assay: MTT cell viability assay, SiHa; assay type: cell-based, human; details: synthetic peptide 100 µg/ml, 24 h, mean ± SD, n = 3
Description: as §1, §2, §3

[5] = molecular target: T1, angiotensin-converting enzyme (ACE) (UniProt P12822)
T1 sequence (P12822 whole entry, species assumed, looked up): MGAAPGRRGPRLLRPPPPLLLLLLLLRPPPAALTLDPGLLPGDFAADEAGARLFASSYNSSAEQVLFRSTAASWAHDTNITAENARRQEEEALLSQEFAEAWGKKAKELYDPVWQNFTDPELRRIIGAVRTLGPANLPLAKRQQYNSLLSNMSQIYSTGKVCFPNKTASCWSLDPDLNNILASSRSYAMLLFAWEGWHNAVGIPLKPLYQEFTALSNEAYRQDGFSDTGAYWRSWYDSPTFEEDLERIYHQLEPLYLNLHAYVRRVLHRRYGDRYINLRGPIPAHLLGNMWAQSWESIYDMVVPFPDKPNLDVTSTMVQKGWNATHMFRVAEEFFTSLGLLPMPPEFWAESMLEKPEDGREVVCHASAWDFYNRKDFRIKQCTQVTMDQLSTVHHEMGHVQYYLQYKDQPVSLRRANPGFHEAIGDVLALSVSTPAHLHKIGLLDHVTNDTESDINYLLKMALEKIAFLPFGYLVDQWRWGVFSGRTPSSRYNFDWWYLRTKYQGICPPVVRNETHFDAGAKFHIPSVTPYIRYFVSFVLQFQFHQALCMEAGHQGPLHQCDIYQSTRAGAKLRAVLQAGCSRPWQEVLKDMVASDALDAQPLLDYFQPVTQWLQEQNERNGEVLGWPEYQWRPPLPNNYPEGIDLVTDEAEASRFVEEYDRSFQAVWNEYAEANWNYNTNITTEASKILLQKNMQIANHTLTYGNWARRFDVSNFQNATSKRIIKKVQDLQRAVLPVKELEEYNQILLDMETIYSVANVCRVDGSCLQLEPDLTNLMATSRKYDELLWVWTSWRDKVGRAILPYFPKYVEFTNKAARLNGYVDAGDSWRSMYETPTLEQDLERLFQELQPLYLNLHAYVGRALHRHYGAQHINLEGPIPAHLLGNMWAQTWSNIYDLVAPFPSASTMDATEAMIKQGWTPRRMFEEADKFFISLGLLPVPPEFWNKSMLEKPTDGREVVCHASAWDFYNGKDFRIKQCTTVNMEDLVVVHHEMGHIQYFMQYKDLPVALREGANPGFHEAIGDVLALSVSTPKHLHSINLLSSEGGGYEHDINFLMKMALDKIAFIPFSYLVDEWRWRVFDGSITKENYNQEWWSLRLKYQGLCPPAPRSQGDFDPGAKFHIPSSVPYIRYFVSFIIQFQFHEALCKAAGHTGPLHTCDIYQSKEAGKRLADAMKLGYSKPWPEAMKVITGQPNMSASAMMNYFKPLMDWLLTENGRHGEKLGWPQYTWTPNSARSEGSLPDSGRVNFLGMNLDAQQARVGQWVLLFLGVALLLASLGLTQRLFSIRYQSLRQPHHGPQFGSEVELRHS

Molecule: APANGSAF [RB-5]
- Antihypertension (%), percentage inhibition of ACE ([1]; SD): 43.33±0.33%
- Inhibitory percentage, SW620 (SW620 cells; n = 3, SD): 3.58±0.04%
- Inhibitory percentage, HepG2 (HepG2 cells): 0%
- Inhibitory percentage, NCI-H460 (NCI-H460 cells; n = 3, SD): 10.58±0.03%
- Antioxidant, DPPH [2]: 374.62±13.56 µg ascorbic acid equivalent
- Antioxidant, FRAP [3]: 87.48±0.20 µg ascorbic acid equivalent
- Inhibitory percentage, Vero (Vero cells): 0%
- Inhibitory percentage, MCF-7 (MCF-7 cells): 0%
- Inhibitory percentage, CaCO2 (CaCO2 cells): 13.21±0.04%
- Antioxidant, ABTS [4]: 412.60±0.71 µg ascorbic acid equivalent
- Inhibitory percentage, SiHa (SiHa cells): 8.75±0.00%

Molecule: DHPTGGL [RB-2]
- Antihypertension (%), percentage inhibition of ACE [1]: 0%
- Inhibitory percentage, SW620 (SW620 cells; n = 3): 0%
- Inhibitory percentage, HepG2 (HepG2 cells): 0%
- Inhibitory percentage, NCI-H460 (NCI-H460 cells; n = 3): 0%
- Antioxidant, DPPH [2]: 239.10±0.83 µg ascorbic acid equivalent
- Antioxidant, FRAP [3]: 59.87±0.06 µg ascorbic acid equivalent
- Inhibitory percentage, Vero (Vero cells): 0%
- Inhibitory percentage, MCF-7 (MCF-7 cells): 0%
- Inhibitory percentage, CaCO2 (CaCO2 cells): 8.99±0.08%
- Antioxidant, ABTS [4]: 284.62±0.75 µg ascorbic acid equivalent
- Inhibitory percentage, SiHa (SiHa cells): 10.28±0.02%

Molecule: GSEIRSTSDDVL [RB-4]
- Antihypertension (%), percentage inhibition of ACE ([1]; SD): 13.33±0.60%
- Inhibitory percentage, SW620 (SW620 cells; n = 3): 0%
- Inhibitory percentage, HepG2 (HepG2 cells): 0%
- Inhibitory percentage, NCI-H460 (NCI-H460 cells; n = 3, SD): 6.08±0.01%
- Antioxidant, DPPH [2]: 424.61±1.53 µg ascorbic acid equivalent
- Antioxidant, FRAP [3]: 128.47±0.86 µg ascorbic acid equivalent
- Inhibitory percentage, Vero (Vero cells): 0%
- Inhibitory percentage, MCF-7 (MCF-7 cells): 0%
- Inhibitory percentage, CaCO2 (CaCO2 cells): 11.27±0.07%
- Antioxidant, ABTS [4]: 539.58±3.43 µg ascorbic acid equivalent
- Inhibitory percentage, SiHa (SiHa cells): 11.45±0.00%

Molecule: LIIPATSTKFL [RB-8]
- Inhibitory percentage, CaCO2 (CaCO2 cells): 20.79±1.23%

Molecule: DHPTGGL [RB-2]
- Antihypertension (%): percent inhibition of ACE activity (hydrolysis of hippuryl-L-histidyl-L-leucine) at 100 µg/ml peptide [5]: 0%

Molecule: APANGSAF [RB-5]
- Antihypertension (%): percent inhibition of ACE activity (hydrolysis of hippuryl-L-histidyl-L-leucine) at 100 µg/ml peptide [5]: 43.3%

Molecule: RRLRILL [RB-6]
- Antihypertension (%): percent inhibition of ACE activity (hydrolysis of hippuryl-L-histidyl-L-leucine) at 100 µg/ml peptide [5]: 46.7%

Molecule: LIIPATSTKFL [RB-8]
- Antihypertension (%): percent inhibition of ACE activity (hydrolysis of hippuryl-L-histidyl-L-leucine) at 100 µg/ml peptide [5]: 16.7%

Molecule: SPTPPKNVPF [RB-3]
- Antihypertension (%): percent inhibition of ACE activity (hydrolysis of hippuryl-L-histidyl-L-leucine) at 100 µg/ml peptide [5]: 20%

Molecule: NLRKLKRL [RB-1]
- Antihypertension (%): percent inhibition of ACE activity (hydrolysis of hippuryl-L-histidyl-L-leucine) at 100 µg/ml peptide [5]: 20%

Molecule: GSEIRSTSDDVL [RB-4]
- Antihypertension (%): percent inhibition of ACE activity (hydrolysis of hippuryl-L-histidyl-L-leucine) at 100 µg/ml peptide [5]: 13.3%

Molecule: RGSKQRQKRQW [RB-7]
- Antihypertension (%): percent inhibition of ACE activity (hydrolysis of hippuryl-L-histidyl-L-leucine) at 100 µg/ml peptide [5]: 60%
